Test results reported in PMC7606612, “Identification of HMGA2 inhibitors by AlphaScreen-based ultra-high-throughput screening assays” (Scientific Reports, 2020).

Columns and labels:
[1] = target: T1, bromodomain-containing protein 4 (BRD4) (Homo sapiens, UniProt O60885); test: BRD4 AlphaScreen counterscreen assay (H4 peptide binding to BRD4); conditions: counter screen, Fig. 3c
T1 construct: His-tagged BRD4-BD1 was purchased from BPS Bioscience (#31042); purchased BPS Bioscience 31042
Procedure: In this study, we also developed a LANCE time-resolved fluorescence energy transfer (TR-FRET) assay as a secondary assay for our screening. The His-tagged HMGA2 and biotinylated oligomer FL814 were linked to Europium-labeled anti-6 × His antibody and APC-labeled streptavidin, respectively. A series of DNA binding studies were performed to determine the optimal conditions for the secondary Assay (Fig. S2). After these experiments, 12.5 nM of FL814 and 62.5 nM of HMGA2 were chosen for the assay, which is the same for the primary assay. The assay tolerated up to 0.25% DMSO without any significant change in signal (Fig. S2c). For a counterscreen assay to exclude those compounds that nonspecifically bind to the protein surface, an AlphaScreen assay of H4 peptide binding to bromodomain-containing protein 4 (BRD4) was adopted (Fig. S2e). Since we are looking for compounds with anti-metastasis or anti-obesity activities, compounds with high levels of cytotoxicity are undesirable. […]
Using a Labcyte Echo 555 acoustic dispenser 5 nL of DMSO were added to columns 1–4 and 45–48 of a white 1536 well plate, while 5 nL of 2 mM compounds in DMSO were added to columns 5–44. […] After an overnight incubation at room temperature the plates were read on a Perkin Elmer Envision multimode plate reader in AlphaScreen mode.

HMGA2-DNA interactions = target: T2, HMGA2-DNA interactions (Mus musculus, UniProt P52927); test: Protein-DNA interaction ELISA (PDI-ELISA) assay; assay type: binding, mammalian; conditions: inhibition of HMGA2-DNA interactions, PDI-ELISA
T2 construct: made in house
T2 sequence (P52927 2-108 limits assumed): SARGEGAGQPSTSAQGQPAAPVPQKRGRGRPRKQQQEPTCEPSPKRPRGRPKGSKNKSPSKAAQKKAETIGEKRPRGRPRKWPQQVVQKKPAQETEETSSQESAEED
Text: The PDI-ELSA assays were described previously[33] and used to determine the inhibition IC50 against HMGA2-DNA interactions. The apparent inhibitory IC50 values were obtained using the following equation: y=min+(max-min/1+10^((x-logIC50)×Hillslope) , where x, y, max, and min represent the inhibitor’s concentration, the inhibition level, the maximum inhibition value, and the minimum inhibition value, respectively.

BTSC#30p [2] = test: Growth curves (CellTiter), BTSC#30p; assay type: cell-based; conditions: up to 200 μM
Procedure: BTSC#83 and BTSC#30p and their culture conditions have been described. For growth curves, suspension cultures were mechanically disaggregated and filtered through 37 µm filters (StemCell Technologies, Vancouver, Canada) in order to obtain bona fide single-cell suspension. […] Cell growth was assayed at the indicated time using the CellTiter Assay System (Promega). The growth conditions of 8505c anaplastic thyroid carcinoma cells and mouse Embryonic Fibroblasts (MEFs) knock-out for HMGA1, HMGA2, and HMGA1/A2 double mutant have been described previously[42],[64]. P values were calculated by using two-way ANOVA followed by Sidak’s multiple comparison test.

BTSC#83 = test: Light microscopy of morphology / differentiation, BTSC#83; assay type: cell-based; conditions: 100 µM and 200 µM, 6 days
BTSC#30p [3] = test: Light microscopy of morphology / differentiation, BTSC#30p; assay type: cell-based; conditions: 100 µM and 200 µM, 6 days
[4] = tested on: anaplastic thyroid carcinoma cell line 8505c; test: Chromatin immunoprecipitation (ChIP) of HMGA2 on ID2 promoter regions A and B; assay type: cell-based, human; conditions: 6 days
Text: (§1) The role of HMGA1 and HMGA2 in regulating ID2 transcription was confirmed by analyzing its expression in mouse embryonic fibroblasts (MEFs) knock-out for HMGA1, HMGA2, and the A1/A2 double mutant, respectively. […] We identified two AT-rich regions, hereafter indicated as “region A” and “region B”, in the human ID2 promoter, containing the HMGA2 consensus sequence[26] (Table S2) for our ChIP experiments. Due to availability, the high proliferation rate, and the expression of HMGA proteins, the anaplastic thyroid carcinoma cell line 8505c was used.
Chromatin immunoprecipitation was performed as described. Briefly, for each sample, 5 × 10^6 cells were collected by trypsinization and cross-linked with 1% formaldehyde; after sonication, the samples were immunoprecipitated with 10 µL anti-HMGA2 antibody (Genetex) or with control normal rabbit IgG and the chromatin was extracted. qPCR amplification was performed on 6 µL of immunoprecipitated DNA, using primers amplifying regions A and B of the ID2 promoter (Table S2). Ct values of samples precipitated with anti-HMGA2 and IgG antibodies were normalized with Ct values of input DNA. Fold change enrichment was calculated in comparison to normalized IgG, using the 2^−ΔΔCt formula. P values were calculated by using one-way ANOVA followed by Sidak’s multiple comparison test.

[5] = tested on: anaplastic thyroid carcinoma cell line 8505c; test: ID2 mRNA expression in 8505c cells; assay type: cell-based, human; conditions: 200 and 400 µM
Text: as §1
The single-cell suspension was obtained by mechanical disaggregation of the spheres and RNA was extracted 48 h later, by using Direct-zol RNA MiniPrep (Zymo Research). One μg of RNA was retrotranscribed, by using QuantiTect® Reverse Transcription Kit (Qiagen) and qRT-PCR was performed as described. The 2^–ΔΔCt formula was used to calculate the differential gene expression.

[6] = no reference given; cited from earlier work

Cc1ccc(C(=O)Nc2ccc(S(=O)(=O)O)c3cc(S(=O)(=O)O)cc(S(=O)(=O)O)c23)cc1NC(=O)c1cccc(NC(=O)Nc2cccc(C(=O)Nc3cc(C(=O)Nc4ccc(S(=O)(=O)O)c5cc(S(=O)(=O)O)cc(S(=O)(=O)O)c45)ccc3C)c2)c1 [suramin]
inhibition of H4 peptide binding to BRD4 [1]: did not inhibit H4 peptide binding to BRD4
IC50 (HMGA2-DNA interactions): 2780 ± 100 nM
cell growth (BTSC#30p [2]): did not significantly affect the cell growth
cell morphology / induction of differentiation (BTSC#83): adhere to the bottom of the well and extend neurite-like structures
cell morphology / induction of differentiation (BTSC#30p [3]): acquire flat epithelial morphology
HMGA2 binding to ID2 promoter regions A and B (ChIP) ([4]; 100 µM): did not detect significant HMGA2 binding reduction
HMGA2 binding to ID2 promoter regions A and B (ChIP) ([4]; 200 µM): drastic reduction in the enrichment
mRNA expression level of ID2 [5]: significantly decreased
oral bioavailability [6]: not orally bioavailable
